Columns and labels:
prolyl endopeptidase = target: T1, prolyl endopeptidase (Sus scrofa, UniProt P23687); assay: Enzyme inhibitory action on swine kidney-derived prolyl endopeptidase (Z-Gly-Pro-β-naphthylamide substrate); type: biochemical; settings: swine kidney prolyl endopeptidase, 0.1 mM substrate, 37° C., 30 minutes, pH 7.5
T1 construct: swine kidney-derived prolyl endopeptidase; from tissue; host or cells: swine kidney
Protocol: (§1) Using 0.1 mM of benzyolxycarbonylglycylproline-β-naphthylamide as substrate and swine kidney-derived prolyl endopeptidase as enzyme, the enzyme was acted on the substrate at 37° C. for 30 minutes in 0.025 M Tris(hydroxymethyl)methane amine-hydrochloric acid (pH 7.5) solution. Fast Garnet was added to form a color and absorbance was measured at 525 nm. The inhibitory activity is expressed in terms of concentration required for 50% inhibition (IC50).

[1] = tested on: prolyl endopeptidase in mouse brain; assay: Prolyl endopeptidase inhibition activity in mouse brain after intravenous administration; type: in vivo, mouse (male ddy strain); settings: 30 mg/kg i.v., 30 minutes after administration, control = 100
Protocol: as §1
Each of the compounds of the present invention was dissolved in physiological saline or physiological saline added with a surfactant. The solution was intravenously administered to male ddy strain mice (3 in one group) at a dose of 30 mg/kg. For control, physiological saline or a surfactant alone was intravenously given to 3 mice in a similar manner.
Thirty minutes after administration, the animal was bled to death and the whole brain was excised out. Each brain was homogenized with 20-fold volume of 0.1M phosphate buffer containing 2 mM DTT and the homogenate was centrifuged at 3000 g for 20 minutes. The prolyl endopeptidase in the resulting supernatant was determined as in Experiment 1, as β-naphthylamine isolated. When the mean enzyme activity in the mouse brain for control is made 100 (β-naphthylamine value: 3.88±0.26), the residual enzyme activity was determined when the compounds of the present invention was administered.

T1 sequence (P23687 whole entry): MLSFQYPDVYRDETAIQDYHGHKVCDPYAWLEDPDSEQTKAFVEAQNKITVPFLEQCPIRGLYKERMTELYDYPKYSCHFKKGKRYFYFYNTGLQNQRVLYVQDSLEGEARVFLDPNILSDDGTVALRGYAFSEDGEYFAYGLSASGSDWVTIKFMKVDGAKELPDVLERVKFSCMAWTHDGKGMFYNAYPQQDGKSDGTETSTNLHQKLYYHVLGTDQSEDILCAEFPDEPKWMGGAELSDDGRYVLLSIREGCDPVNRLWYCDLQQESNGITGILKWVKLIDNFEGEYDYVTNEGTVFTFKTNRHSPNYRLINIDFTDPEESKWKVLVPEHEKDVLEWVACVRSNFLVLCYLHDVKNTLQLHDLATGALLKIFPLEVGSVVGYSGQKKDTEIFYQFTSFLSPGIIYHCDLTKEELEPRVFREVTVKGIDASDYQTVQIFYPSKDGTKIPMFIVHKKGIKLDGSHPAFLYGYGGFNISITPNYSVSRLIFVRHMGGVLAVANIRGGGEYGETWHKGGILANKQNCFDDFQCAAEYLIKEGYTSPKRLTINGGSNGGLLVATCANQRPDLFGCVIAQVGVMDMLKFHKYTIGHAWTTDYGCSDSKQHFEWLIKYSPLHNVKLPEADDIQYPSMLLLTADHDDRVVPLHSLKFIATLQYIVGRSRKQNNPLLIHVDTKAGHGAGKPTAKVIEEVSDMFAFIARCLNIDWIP

Structure (SMILES) | IC50 (prolyl endopeptidase) [nM] | Residual Enzyme Activity (%) [1] [%]
O=C(NC1CCCCC1)C(=O)C1CCCN1C(=O)C(Cc1ccccc1)NC(=O)c1ccccn1 (stereo not drawn) [Example 26, N-Cyclohexyl-2-oxo-2-[2-(1-(N-(2-pyridylcarbonyl)phenylalanyl)pyrrolidinyl)]acetamide] | 1.78 | 5.7
O=C(NC1CCCCC1)C(=O)C1CCCN1C(=O)c1ccc2ccccc2c1 (stereo not drawn) [Example 64, N-Cyclohexyl-2-oxo-2-[2-(1-(2-naphthoyl)pyrrolidinyl)]acetamide] | 21.7 | 50.5
O=C(NC1CCCCC1)C(=O)C1CCCN1C(=O)[C@H](Cc1ccccc1)NC(=O)c1ccc(CN2CCOCC2)cc1 (stereo partly drawn) [Example 57, N-Cyclohexyl-2-oxo-2-[2-(1-(N-(4-morpholinomethylbenzoyl)phenylalanyl)pyrrolidinyl)]acetamide] | 9.4 | –
CC(C)(C)OC(=O)N1c2ccccc2CC1C(=O)N1CCCC1C(=O)C(=O)NC1CCCCC1 (stereo not drawn) [Example 126, N-Cyclohexyl-2-oxo-2-[2-(1-(1-t-butoxycarbonyl-2,3-dihydroindole-2-carbonyl)pyrrolidinyl)]acetamide] | 1.7 | –
O=C(NC1CCCCC1)C(=O)C1CCCN1C(=O)c1ccc(CN2CCOCC2)cc1 (stereo not drawn) [Example 84, N-Cyclohexyl-2-oxo-2-[2-(1-(4-morpholinomethylbenzoyl)pyrrolidinyl)]acetamide] | 72.5 | 50.3
O=C(Cc1ccccn1)NC(Cc1ccccc1)C(=O)N1CCCC1C(=O)C(=O)NC1CCCCC1 (stereo not drawn) [Example 24, N-Cyclohexyl-2-oxo-2-[2-(1-(N-(2-pyridyl)acetylphenylalanyl)pyrrolidinyl)]acetamide] | 2.24 | –

— patent US5756763A, “Pyrrolidine derivatives” (Zaidan Hojin Biseibutsu Kagaku Kenkyukai, priority 1993, dated 1998)
